Measured values from ChEMBL document CHEMBL6127056, “Novel mechanistic insights - A brand new Era for anti-HBV drugs” (Eur J Med Chem, 2024).

Assays:
[1] = test system: Hepatitis B virus; assay: Antiviral activity against HBV infected in human HepDES19 cells assessed as inhibition of extracellular HBV DNA by qPCR analysis; assay type: functional, organism-based
[2] = test system: Hepatitis B virus; assay: Antiviral activity against HBV infected in human Primary hepatocyte assessed as reduction in HBV replication; assay type: functional, organism-based
[3] = molecular target: SRSF protein kinase 1 (Homo sapiens, UniProt Q96SB4); assay: Inhibition of SRPK-1 (unknown origin)
SRSF protein kinase 1, sequence (Q96SB4 whole entry): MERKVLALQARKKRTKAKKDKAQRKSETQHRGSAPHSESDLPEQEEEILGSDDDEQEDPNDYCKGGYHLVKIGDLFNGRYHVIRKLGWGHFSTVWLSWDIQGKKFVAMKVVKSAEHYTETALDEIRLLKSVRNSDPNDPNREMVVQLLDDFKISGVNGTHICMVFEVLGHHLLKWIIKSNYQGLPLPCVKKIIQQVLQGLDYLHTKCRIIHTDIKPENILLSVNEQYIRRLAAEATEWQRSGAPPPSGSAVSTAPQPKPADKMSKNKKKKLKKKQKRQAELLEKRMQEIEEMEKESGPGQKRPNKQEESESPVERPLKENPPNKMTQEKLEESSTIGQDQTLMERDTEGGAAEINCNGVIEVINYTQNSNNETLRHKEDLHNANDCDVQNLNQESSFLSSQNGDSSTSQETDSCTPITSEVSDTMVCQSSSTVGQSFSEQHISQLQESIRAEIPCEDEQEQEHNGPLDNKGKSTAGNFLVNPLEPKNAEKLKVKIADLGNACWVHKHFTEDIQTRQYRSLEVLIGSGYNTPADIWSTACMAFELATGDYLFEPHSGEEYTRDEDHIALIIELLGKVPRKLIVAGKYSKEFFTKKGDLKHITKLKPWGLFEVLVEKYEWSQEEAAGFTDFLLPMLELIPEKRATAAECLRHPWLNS

[4] = molecular target: Lysine-specific demethylase 5B (Homo sapiens, UniProt Q9UGL1); assay: Inhibition of KDM5B (unknown origin)
Lysine-specific demethylase 5B, sequence (Q9UGL1 whole entry): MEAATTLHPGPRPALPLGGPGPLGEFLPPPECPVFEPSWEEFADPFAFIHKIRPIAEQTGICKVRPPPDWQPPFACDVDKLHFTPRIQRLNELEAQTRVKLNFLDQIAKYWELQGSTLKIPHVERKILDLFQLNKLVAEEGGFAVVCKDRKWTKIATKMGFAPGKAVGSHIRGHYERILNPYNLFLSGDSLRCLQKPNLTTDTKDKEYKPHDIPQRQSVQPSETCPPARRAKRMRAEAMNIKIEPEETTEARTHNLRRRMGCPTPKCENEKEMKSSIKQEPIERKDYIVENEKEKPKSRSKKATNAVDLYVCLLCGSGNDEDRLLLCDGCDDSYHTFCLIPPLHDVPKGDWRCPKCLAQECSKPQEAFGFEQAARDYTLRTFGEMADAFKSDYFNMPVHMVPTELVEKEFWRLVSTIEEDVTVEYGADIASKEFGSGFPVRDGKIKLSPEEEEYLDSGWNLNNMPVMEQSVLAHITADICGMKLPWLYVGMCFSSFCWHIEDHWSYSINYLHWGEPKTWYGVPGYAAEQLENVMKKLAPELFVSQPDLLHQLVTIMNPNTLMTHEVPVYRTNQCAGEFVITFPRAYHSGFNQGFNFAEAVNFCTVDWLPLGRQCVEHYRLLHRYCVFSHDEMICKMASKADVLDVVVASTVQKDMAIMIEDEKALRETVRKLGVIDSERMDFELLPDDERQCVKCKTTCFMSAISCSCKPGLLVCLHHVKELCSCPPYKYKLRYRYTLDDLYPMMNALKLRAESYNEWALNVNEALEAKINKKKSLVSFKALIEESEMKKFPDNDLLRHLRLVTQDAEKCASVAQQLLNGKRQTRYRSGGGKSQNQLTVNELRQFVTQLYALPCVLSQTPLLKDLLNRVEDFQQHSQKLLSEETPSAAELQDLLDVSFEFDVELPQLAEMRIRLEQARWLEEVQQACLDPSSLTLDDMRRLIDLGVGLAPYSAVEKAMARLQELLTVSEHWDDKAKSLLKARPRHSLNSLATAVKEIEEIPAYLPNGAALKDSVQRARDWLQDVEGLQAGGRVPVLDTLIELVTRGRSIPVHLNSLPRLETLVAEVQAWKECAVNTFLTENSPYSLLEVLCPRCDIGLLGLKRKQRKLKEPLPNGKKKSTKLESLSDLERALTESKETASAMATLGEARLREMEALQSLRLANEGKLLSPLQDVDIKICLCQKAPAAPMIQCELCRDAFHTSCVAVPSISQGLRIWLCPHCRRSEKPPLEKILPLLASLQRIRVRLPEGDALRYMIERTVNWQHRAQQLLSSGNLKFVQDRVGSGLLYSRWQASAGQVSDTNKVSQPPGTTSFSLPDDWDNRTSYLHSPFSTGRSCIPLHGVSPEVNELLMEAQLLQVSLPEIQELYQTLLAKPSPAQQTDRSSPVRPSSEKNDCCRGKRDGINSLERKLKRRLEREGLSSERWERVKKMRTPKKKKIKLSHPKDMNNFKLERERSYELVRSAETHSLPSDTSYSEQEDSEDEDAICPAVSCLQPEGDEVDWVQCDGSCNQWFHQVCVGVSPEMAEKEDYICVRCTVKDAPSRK

[5] = test system: Hepatitis B virus; assay: Antiviral activity against wild type HBV infected in HepG2.2.15 cells assessed as reduction in viral replication; assay type: functional, organism-based
[6] = test system: Hepatitis B virus; assay: Antiviral activity against HBV infected in human HepG2.117 cells assessed as reduction in intracellular DNA level by RT-qPCR analysis; assay type: functional, organism-based
[7] = test system: Hepatitis B virus; assay: Antiviral activity against HBV infected in human HepG2.2.15 cells; assay type: functional, organism-based
[8] = test system: Hepatitis B virus; assay: Antiviral activity against Hepatitis B virus assessed as inhibition of HBV DNA replication; assay type: functional, organism-based
[9] = molecular target: Triosephosphate isomerase (Homo sapiens, UniProt P60174); assay: Inhibition of TPI1 (unknown origin)
Triosephosphate isomerase, sequence (P60174 whole entry): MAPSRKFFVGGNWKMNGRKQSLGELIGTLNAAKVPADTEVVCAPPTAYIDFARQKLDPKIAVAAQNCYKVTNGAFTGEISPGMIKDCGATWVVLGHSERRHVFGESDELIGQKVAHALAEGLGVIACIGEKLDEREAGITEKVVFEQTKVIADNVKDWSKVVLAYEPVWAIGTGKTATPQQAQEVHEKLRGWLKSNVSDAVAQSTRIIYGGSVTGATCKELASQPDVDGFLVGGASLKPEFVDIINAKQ

[10] = Inhibition of HBV RNA polymerase; set-up: species or system Hepatitis B virus
[11] = molecular target: T1, Hepatic sodium/bile acid cotransporter (Homo sapiens, UniProt Q14973); assay: Inhibition of NTCP (unknown origin)
T1 sequence (Q14973 whole entry): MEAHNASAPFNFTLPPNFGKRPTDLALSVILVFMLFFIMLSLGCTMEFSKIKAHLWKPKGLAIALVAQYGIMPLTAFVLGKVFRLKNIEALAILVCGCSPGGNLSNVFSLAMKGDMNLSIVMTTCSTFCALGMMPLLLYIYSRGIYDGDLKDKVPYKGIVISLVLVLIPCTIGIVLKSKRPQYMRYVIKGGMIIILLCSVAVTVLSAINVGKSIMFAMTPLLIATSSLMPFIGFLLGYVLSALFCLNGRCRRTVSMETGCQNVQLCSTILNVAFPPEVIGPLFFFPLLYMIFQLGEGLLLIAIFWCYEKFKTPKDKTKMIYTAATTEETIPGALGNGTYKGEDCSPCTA

CCOC(=O)C1=C(CN2CCN(C(C(=O)O)c3ccoc3)CC2)NC(c2nccs2)=NC1c1ccc(F)cc1Br (centres undefined) gave an EC50 [1] greater than 10000 nM.
In the case of O=C(O)C1CC(OCCOc2ccc(-c3cc(=O)c4cccc(Cl)c4o3)cc2)C1 (centres undefined), the EC50 [2] is reported as 200 nM.
For CCc1cc2c(cc1-c1cccc(S(=O)(=O)F)c1)C(C)(C)c1[nH]c3cc(C#N)ccc3c1C2=O, the IC50 [3] was 9400 nM.
In the case of CCN(CCN(C)C)C(=O)CNCc1cc(C(=O)O)ccn1, the IC50 [4] is reported as 380 nM.
Work on O=c1ccc2cc3ccoc3cc2o1 [PSORALEN] yielded an EC50 [5] of 63700 nM.
With Nc1ncnc2c1ncn2[C@@H]1OC[C@](F)(CO)[C@H]1CO the EC50 [6] was greater than 10000 nM.
In the case of O=c1cc(-c2ccc(O)c(-c3c(O)cc(O)c4c(=O)cc(-c5ccc(O)cc5)oc34)c2)oc2cc(O)cc(O)c12 [AMENTOFLAVONE], the EC50 [7] is reported as 48.6 µg/mL.
With C/C(=N\c1cccc(F)c1)c1c(C)cc(=O)n(O)c1O the EC50 [8] was 2100 nM.
For C=C(c1ccc(C(=O)O)cc1)c1cc2c(cc1C)C(C)(C)CCC2(C)C [BEXAROTENE], the IC50 [9] was 1890 nM.
Work on NCCCC(=O)NCc1nc(-c2cccc(F)c2)c(-c2ccccn2)[nH]1 yielded an EC50 [8] greater than 10000 nM.
With COc1ccc(-c2cc(=O)c3c(O)cc(O)c(-c4cc(-c5cc(=O)c6c(O)cc(OC)cc6o5)ccc4OC)c3o2)cc1 [SCIADOPITISIN] the EC50 [7] was 56.4 µg/mL.
CCOCCOC(=O)C1=C(C)NC(c2ncc(F)cc2F)=NC1c1ccc(F)cc1C (centres undefined) gave an EC50 [7] of 6240 nM.
Work on Cn1cnc(COC(=O)N[C@H]2CCc3c(C(=O)Nc4ccc(F)c(Cl)c4)ccc(F)c32)n1 yielded an EC50 [2] of 630 nM.
In the case of O=C(OCc1ccc(-c2cnc3ccccc3n2)cc1)c1cccs1, the EC50 [8] is reported as greater than 10000 nM.
CCOC(=O)C1=C(CN2CCN(C(C(=O)O)c3cccc([N+](=O)[O-])c3)CC2)NC(c2nccs2)=NC1c1ccc(F)cc1Br (centres undefined) gave an EC50 [1] of 24 nM.
O=C(Nc1ccc2c(=O)c3cccc(F)c3oc2c1)c1ccccc1 showed an IC50 [10] of 1890 nM.
For CNC(=O)C1(NC(=O)C(=O)c2c(C)c(C(=O)Nc3ccc(F)c(F)c3)n3c2CCC3)CC(F)(F)C1, the EC50 [2] was 80 nM.
In the case of COc1cc([C@H]2c3cc4c(cc3[C@H](n3cc(CO[C@H]5CC[C@]6(C)[C@H]7CC=C8[C@@H]9CC(C)(C)CC[C@]9(C(=O)O)CC[C@@]8(C)[C@]7(C)CC[C@H]6C5(C)C)nn3)[C@H]3COC(=O)[C@H]23)OCO4)cc(OC)c1OC, the IC50 [11] is reported as 70 nM.
With Cc1nc(-c2c(-c3ccccc3)ncn2Cc2cccc3[nH]ccc23)c[nH]1 the EC50 [8] was 10000 nM.
Compound O=c1cc(-c2ccccc2)oc2cc(O)cc(O)c12 [CHRYSIN] has an EC50 [2] of 22500 nM.
Compound CCCCCCCCCc1cc(OC(=O)c2c(CCCCCCCCC)cc(O)cc2O[C@@H]2O[C@H](CO)[C@@H](O)[C@H](O)[C@H]2O)cc(O)c1C(=O)O has an IC50 [9] of 1100 nM.
Work on CCOC(=O)c1cc(-c2cc(=O)oc3ccccc23)oc1C yielded an IC50 [10] of 16700 nM.
Compound COc1cc(C[C@@H]2CO[C@@H](c3ccc(O)c(OC)c3)[C@@H]2CO)ccc1O [(-)-Lariciresinol] has an EC50 [5] of 42600 nM.
Compound CCCCCCCc1cc(OC(=O)c2c(CCCCCCC)cc(O)cc2O[C@H]2O[C@@H](CO)[C@H](O)[C@@H](O)[C@@H]2O)cc(O)c1C(=O)O has an IC50 [9] of 1700 nM.
